The first series is described as follows: Water solubility of the salts. The format is physicochemical.
Conditions: not given
An excerpt: Organische Lösungsmittel tragen zur Umweltverschmutzung bei und deshalb ist es wünschenswert, Wasser als Basis für Reaktionen oder auch Lacke zu verwenden. […] Wir beobachteten, dass vor allem die Kombination mit Alkalimetallen zu einer sehr guten Löslichkeit führte.
Ein wichtiges Kriterium für die Auswahl der Substanzen für eingehendere Studien, war deren Wasserlöslichkeit. Ausgeschlossen wurden vor allem Verbindungen, die höhere Kationen als die Alkalimetalle enthalten, da diese nur sehr schlecht löslich sind. Trotzdem wurde zumindest für zwei wasserunlösliche Salze versucht, sie als Suspensionen aufzubringen. Ausgewählt wurden dafür ALDA und Calcium(II)hydantoinat.
In the case of `NC(=O)NC1NC(=O)NC1=O` (stereo not shown) [Allantoin Natrium, Natrium(I)allantoinat], the “Wasser löslich” value is “+”.

Regarding `NC(=O)NC1NC(=O)NC1=O` (stereo not shown) [Allantoin Kalium, Kalium(I)allantoinat], the “Wasser löslich” value is recorded as “+”.

As for `O=C1CN(CN2CC(=O)NC2=O)C(=O)N1` [1,1'-(Methylen) bishydantoin Kalium, Kalium(I)N,N'-methylenbishydantoinat], the “Wasser löslich” value was “+”.

In the case of `NC(=O)NC1NC(=O)NC1=O` (stereo not shown) [Allantoin, reference compound], the Wasserlöslichkeit entry is listed as “schlecht wasserlöslich”.

In the case of “Dihydroxyaluminiumallantoinat [Allantoin Al(OH)2*, reference compound]”, the “Wasser löslich” value was “-”.

Consider `O=C1CNC(=O)N1` [Hydantoin Kalium, Kalium(I)hydantoinat], for which the “Wasser löslich” value is given as “+”.

As to `CC(N1CC(=O)NC1=O)N1CC(=O)NC1=O` [1,1'-(Methylmethylen) bishydantoin Natrium] [Natrium(I)N,N'-(methylmethylen)bishydantoinat], the “Wasser löslich” value is recorded as “+”.

As to `O=C1CNC(=O)N1` [Hydantoin Calcium, Calcium(II)hydantoinat], the “Wasser löslich” value is given as “-”.

Regarding `O=C1CNC(=O)N1` [Hydantoin Natrium, Natrium(I)hydantoinat], the “Wasser löslich” value is “+”.

Consider `CC(N1CC(=O)NC1=O)N1CC(=O)NC1=O` [1,1'-(Methylmethylen) bishydantoin Calcium] [Calcium(II)N,N'-(methylmethylen)bishydantoinat], for which the “Wasser löslich” value is listed as “+”.

For the molecule `O=C1CN(CN2CC(=O)[N-]C2=O)C(=O)[N-]1.OC[P+](CO)(CO)CO.OC[P+](CO)(CO)CO` [Bis[tetrakis(hydroxymethyl)phosphonium]N,N'-methylenbishydantoinat], the “Wasser löslich” value was “+”.

As for `O=C1CNC(=O)N1` [Hydantoin Tetramethylammonium, Tetramethylammoniumhydantoinat], the “Wasser löslich” value was “+”.

“Tetrakis(hydroxymethyl)phosphoniumhydantoinat”: the “Wasser löslich” value is reported as “+”.

Consider `CC(N1CC(=O)NC1=O)N1CC(=O)NC1=O` [1,1'-(Methylmethylen) bishydantoin Kalium] [Kalium(I)N,N'-(methylmethylen)bishydantoinat], for which the “Wasser löslich” value was “+”.

For the molecule `NC(=O)NC1NC(=O)NC1=O` (stereo not shown) [Allantoin Calcium, Calcium(II)allantoinat], the “Wasser löslich” value is “+”.

As to `O=C1CN(CN2CC(=O)NC2=O)C(=O)N1` [1,1'-(Methylen) bishydantoin Natrium, Natrium(I)N,N'-methylenbishydantoinat], the “Wasser löslich” value is reported as “+”.

The same series, now with this note: in words.
As to “Dihydroxyaluminiumallantoinat [Allantoin Al(OH)2*, reference compound]”, the Wasserlöslichkeit entry is on record as “wasserunlösliche”.

With `O=C1CNC(=O)N1` [Hydantoin Calcium, Calcium(II)hydantoinat], the Wasserlöslichkeit entry is on record as “wasserunlösliche”.

Regarding `O=C1CNC(=O)N1` [Hydantoin, reference compound], the Wasserlöslichkeit result was “schlecht wasserlöslich”.

The values above are taken from patent publication EP3049422B1, “INTUMESCENT COATINGS” (MIPA SE, priority 2013, dated 2015).
